Test system: 521955-158-R2-J5-PDC complex spheroids, viability
Test: Anticancer human tumor 521955-158-R2-J5-PDC patient-derived pancreatic carcinoma cell line growth inhibition [RAS]
Conditions: for viability, T/C: stronger effect = lower value
Procedure, shortened: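 Agents were tested in combination matrices in half-log decrements from a top concentration at or near clinical Cmax (10 microM if undetermined). Targets were multi-cell spheroids of tumour lines plus HUVEC and MSC stromal cells.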

[1] = curve of first compound, second compound 0.000949 µM
[2] = curve of first compound, second compound 0.003 µM
[3] = curve of first compound, second compound 0.00949 µM
[4] = curve of first compound, second compound 0.03 µM
[5] = curve of first compound, second compound 0.0949 µM
[6] = curve of first compound, second compound 0.3 µM
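Further: compound exposure lasted seven days before the viability read.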
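Wherever viability, T/C is given: spheroids also contain HUVEC endothelial cells and mesenchymal stem cells as stroma.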

## CCc1c2c(nc3ccc(O)cc13)-c1cc3c(c(=O)n1C2)COC(=O)[C@]3(O)CC + CCn1c(-c2cccnc2C(C)OC)c2c3cc(ccc31)N1CCOC(CC(NC(=O)C(C(C)C)N(C)C(=O)C3(F)CCN(C(=O)C#CC(C)(C)N(C)C)CC3)C(=O)N3CCCC(N3)C(=O)OCC(C)(C)C2)C1
[1]
  IC50: 2.25 nM
[2]
  IC50: 2.41 nM
[3]
  IC50: 2.52 nM
[4]
  IC50: 2.53 nM
[5]
  IC50: 2.64 nM
[6]
  IC50: 1.7 nM
Second compound 0.000949 µM, first compound 0.000949 µM
  viability, T/C: 97.8%
Second compound 0.000949 µM, first compound 0.003 µM
  viability, T/C: 34.1%
Second compound 0.000949 µM, first compound 0.00949 µM
  viability, T/C: 12.3%
Second compound 0.000949 µM, first compound 0.03 µM
  viability, T/C: 5.82%
Second compound 0.000949 µM, first compound 0.0949 µM
  viability, T/C: 6.17%
Second compound 0.000949 µM, first compound 0.3 µM
  viability, T/C: 6.87%
Second compound 0.003 µM, first compound 0.000949 µM
  viability, T/C: 92.6%
Second compound 0.003 µM, first compound 0.003 µM
  viability, T/C: 39.6%
Second compound 0.003 µM, first compound 0.00949 µM
  viability, T/C: 16.9%
Second compound 0.003 µM, first compound 0.03 µM
  viability, T/C: 5.84%
Second compound 0.003 µM, first compound 0.0949 µM
  viability, T/C: 4.8%
Second compound 0.003 µM, first compound 0.3 µM
  viability, T/C: 7.45%
Second compound 0.00949 µM, first compound 0.000949 µM
  viability, T/C: 104%
Second compound 0.00949 µM, first compound 0.003 µM
  viability, T/C: 40.5%
Second compound 0.00949 µM, first compound 0.00949 µM
  viability, T/C: 14.4%
Second compound 0.00949 µM, first compound 0.03 µM
  viability, T/C: 8.96%
Second compound 0.00949 µM, first compound 0.0949 µM
  viability, T/C: 6.33%
Second compound 0.00949 µM, first compound 0.3 µM
  viability, T/C: 7.48%
Second compound 0.03 µM, first compound 0.000949 µM
  viability, T/C: 72.7%
Second compound 0.03 µM, first compound 0.003 µM
  viability, T/C: 46.1%
Second compound 0.03 µM, first compound 0.00949 µM
  viability, T/C: 11.3%
Second compound 0.03 µM, first compound 0.03 µM
  viability, T/C: 10%
Second compound 0.03 µM, first compound 0.0949 µM
  viability, T/C: 5.57%
Second compound 0.03 µM, first compound 0.3 µM
  viability, T/C: 7.99%
Second compound 0.0949 µM, first compound 0.000949 µM
  viability, T/C: 101%
Second compound 0.0949 µM, first compound 0.003 µM
  viability, T/C: 43.5%
Second compound 0.0949 µM, first compound 0.00949 µM
  viability, T/C: 12.7%
Second compound 0.0949 µM, first compound 0.03 µM
  viability, T/C: 4.87%
Second compound 0.0949 µM, first compound 0.0949 µM
  viability, T/C: 7.25%
Second compound 0.0949 µM, first compound 0.3 µM
  viability, T/C: 6.81%
Second compound 0.3 µM, first compound 0.000949 µM
  viability, T/C: 66%
Second compound 0.3 µM, first compound 0.003 µM
  viability, T/C: 34.3%
Second compound 0.3 µM, first compound 0.00949 µM
  viability, T/C: 10%
Second compound 0.3 µM, first compound 0.03 µM
  viability, T/C: 5.73%
Second compound 0.3 µM, first compound 0.0949 µM
  viability, T/C: 6.03%
Second compound 0.3 µM, first compound 0.3 µM
  viability, T/C: 4.48%

## CCc1c2c(nc3ccc(O)cc13)-c1cc3c(c(=O)n1C2)COC(=O)[C@]3(O)CC
Compound 0.000949 µM
  viability, T/C: 82.5% [middle of 4 runs]
Compound 0.003 µM
  viability, T/C: 44.6% [middle of 4 runs]
Compound 0.00949 µM
  viability, T/C: 19.9% [middle of 4 runs]
Compound 0.03 µM
  viability, T/C: 10.1% [middle of 4 runs]
Compound 0.0949 µM
  viability, T/C: 6.59% [middle of 4 runs]
Compound 0.3 µM
  viability, T/C: 6.5% [middle of 4 runs]
Curve of compound
  IC50: 2.64 nM [middle of 4 runs]

## CCN1CCN(Cc2ccc(Nc3ncc(F)c(-c4cc(F)c5nc(C)n(C(C)C)c5c4)n3)nc2)CC1 + CCn1c(-c2cccnc2C(C)OC)c2c3cc(ccc31)N1CCOC(CC(NC(=O)C(C(C)C)N(C)C(=O)C3(F)CCN(C(=O)C#CC(C)(C)N(C)C)CC3)C(=O)N3CCCC(N3)C(=O)OCC(C)(C)C2)C1
[1]
  IC50: > 1000 nM
[2]
  IC50: > 1000 nM
[3]
  IC50: > 1000 nM
[4]
  IC50: > 1000 nM
[5]
  IC50: > 1000 nM
[6]
  IC50: > 1000 nM
Second compound 0.000949 µM, first compound 0.00316 µM
  viability, T/C: 96.8%
Second compound 0.000949 µM, first compound 0.01 µM
  viability, T/C: 87.4%
Second compound 0.000949 µM, first compound 0.0316 µM
  viability, T/C: 61.9%
Second compound 0.000949 µM, first compound 0.1 µM
  viability, T/C: 80.1%
Second compound 0.000949 µM, first compound 0.316 µM
  viability, T/C: 87.8%
Second compound 0.000949 µM, first compound 1 µM
  viability, T/C: 74.5%
Second compound 0.003 µM, first compound 0.00316 µM
  viability, T/C: 88.6%
Second compound 0.003 µM, first compound 0.01 µM
  viability, T/C: 89.2%
Second compound 0.003 µM, first compound 0.0316 µM
  viability, T/C: 81.9%
Second compound 0.003 µM, first compound 0.1 µM
  viability, T/C: 75.7%
Second compound 0.003 µM, first compound 0.316 µM
  viability, T/C: 79.1%
Second compound 0.003 µM, first compound 1 µM
  viability, T/C: 70.7%
Second compound 0.00949 µM, first compound 0.00316 µM
  viability, T/C: 85.5%
Second compound 0.00949 µM, first compound 0.01 µM
  viability, T/C: 80.1%
Second compound 0.00949 µM, first compound 0.0316 µM
  viability, T/C: 74.2%
Second compound 0.00949 µM, first compound 0.1 µM
  viability, T/C: 79.5%
Second compound 0.00949 µM, first compound 0.316 µM
  viability, T/C: 69.1%
Second compound 0.00949 µM, first compound 1 µM
  viability, T/C: 74%
Second compound 0.03 µM, first compound 0.00316 µM
  viability, T/C: 73.8%
Second compound 0.03 µM, first compound 0.01 µM
  viability, T/C: 89.7%
Second compound 0.03 µM, first compound 0.0316 µM
  viability, T/C: 76.9%
Second compound 0.03 µM, first compound 0.1 µM
  viability, T/C: 75.1%
Second compound 0.03 µM, first compound 0.316 µM
  viability, T/C: 73.1%
Second compound 0.03 µM, first compound 1 µM
  viability, T/C: 73.6%
Second compound 0.0949 µM, first compound 0.00316 µM
  viability, T/C: 66.8%
Second compound 0.0949 µM, first compound 0.01 µM
  viability, T/C: 73.9%
Second compound 0.0949 µM, first compound 0.0316 µM
  viability, T/C: 73.7%
Second compound 0.0949 µM, first compound 0.1 µM
  viability, T/C: 74.6%
Second compound 0.0949 µM, first compound 0.316 µM
  viability, T/C: 71.6%
Second compound 0.0949 µM, first compound 1 µM
  viability, T/C: 69.4%
Second compound 0.3 µM, first compound 0.00316 µM
  viability, T/C: 71.5%
Second compound 0.3 µM, first compound 0.01 µM
  viability, T/C: 60.8%
Second compound 0.3 µM, first compound 0.0316 µM
  viability, T/C: 59.9%
Second compound 0.3 µM, first compound 0.1 µM
  viability, T/C: 58.1%
Second compound 0.3 µM, first compound 0.316 µM
  viability, T/C: 61.6%
Second compound 0.3 µM, first compound 1 µM
  viability, T/C: 61.1%

## CC(C)NCC(C(=O)N1CCN(c2ncnc3c2C(C)CC3O)CC1)c1ccc(Cl)cc1 (stereo not drawn)
Compound 0.0316 µM
  viability, T/C: 97.9% [middle of 4 runs]
Compound 0.1 µM
  viability, T/C: 99.3% [middle of 4 runs]
Compound 0.316 µM
  viability, T/C: 96% [middle of 4 runs]
Compound 1 µM
  viability, T/C: 60.5% [middle of 4 runs]
Compound 3.16 µM
  viability, T/C: 75.7% [middle of 4 runs]
Compound 10 µM
  viability, T/C: 72.5% [middle of 4 runs]
Curve of compound
  IC50: > 10000 nM

— PubChem BioAssay AID2060900 (Molecular Pharmacology Branch, DTP, NCI, 2025)
